Assay results reported in patent publication US6777412B2 (priority 1990, dated 2004).
Like-named read-outs stand apart in the source and are kept apart here. Marks after values point to notes of the source that are not given here.

Columns and labels:
Assay type in all cases: in vivo
[1] = system: Cercospora arachidicola; assay: Foliar fungal disease test on plants: Cercospora arachidicola (Ca)
Description: (§1) The compounds were tested against a variety of foliar fungal diseases of plants. The technique employed was as follows.
(§2) The plants were grown in John Innes Potting Compost (No.1 or 2) in 4 cm diameter minipots. The test compounds were formulated either by bead milling with aqueous Dispersol T or as a solution in acetone or acetone/ethanol which was diluted to the required concentration immediately before use. For the foliage diseases, the formulations (100 ppm active ingredient except where otherwise indicated) were sprayed onto the foliage and applied to the roots of the plants in the soil. The sprays were applied to maximum retention and the root drenches to a final concentration equivalent to approximately 40 ppm a.i. in dry soil. Tween 20, to give a final concentration of 0.05%, was added when the sprays were applied to cereals.
(§3) For most of the tests the compound was applied to the soil (roots) and to the foliage (by spraying) one or two days before the plant was inoculated with the disease. An exception was the test on Erysiphe graminis in which the plants were inoculated 24 hours before treatment. Foliar pathogens were applied by spray as spore suspensions onto the leaves of test plants. After inoculation, the plants were put into an appropriate environment to allow infection to proceed and then incubated until the disease was ready for assessment. The period between inoculation and assessment varied from four to fourteen days according to the disease and environment.
(§4) The disease control vas recorded by the following grading:
(§5) 3=trace-5% of disease on untreated plants
(§6) 2=6-25% of disease on untreated plants
(§7) 1=26-59% of disease on untreated plants
(§8) 0=60-100% of disease on untreated plants
Ca Cercospora arachidicola

[2] = system: Pyricularia oryzae
[3] = system: Venturia inaequalis; assay: Foliar fungal disease test on plants: Venturia inaequalis (Vi)
Procedure, shortened: (§9)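 Potted plants treated by foliar spray to maximum retention (100 ppm a.i. unless stated) plus root drench (~40 ppm a.i. in dry soil), with 0.05% Tween 20 on cereals, one or two days before spore-suspension inoculation.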

[4] = system: Plasmopara viticola; assay: Foliar fungal disease test on plants: Plasmopara viticola (Pv)
Procedure, shortened: as §9

[5] = system: Puccinia recondita; assay: Foliar fungal disease test on plants: Puccinia recondita (Pr)
Procedure, shortened: as §9

[6] = system: Erysiphe graminis hordei; assay: Foliar fungal disease test on plants: Erysiphe graminis hordei (Egh)
[7] = system: Phytophthora infestans lycopersici
[8] = system: Erysiphe graminis tritici; assay: Foliar fungal disease test on plants: Erysiphe graminis tritici (Egt); conditions: 10 ppm foliar application only
Procedure, shortened: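 Formulations (100 ppm a.i. unless stated, 0.05% Tween 20 on cereals) sprayed to foliage plus root drench (~40 ppm a.i. in dry soil), 24 h after spore-suspension spray inoculation.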

[9] = system: Septoria nodorum; assay: Foliar fungal disease test on plants: Septoria nodorum (Sn); conditions: 10 ppm foliar application only
Procedure, shortened: as §9

[10] = system: Thanatephorus cucumeris; assay: Foliar fungal disease test on plants: Thanatephorus cucumeris (Tc); conditions: 10 ppm foliar application only
Description: as §1, §2, §3, §4, §5, §6, §7, §8
Tc Thanatephorus cucumeris

[11] = 100 ppm active ingredient foliar spray plus root drench (approx. 40 ppm a.i. in dry soil), one or two days before inoculation
[12] = 100 ppm active ingredient foliar spray plus root drench (approx. 40 ppm a.i. in dry soil), plants inoculated 24 hours before treatment

In the case of `CO/C=C(/C(=O)OC)c1ccccc1Oc1cc(OCc2ccccc2)ncn1` [23 of Table I], the “disease control grading, Ca (Cercospora arachidicola)” value (“disease control grading, Ca” for short) [1, 11] is reported as 4 (4=no disease), the “disease control grading, Po (Pyricularia oryzae)” value (shortened to “disease control grading, Po”) [2, 11] is reported as 4 (4=no disease) and the “disease control grading, Vi (Venturia inaegualis)” value (“disease control grading, Vi” for short) [3, 11] is reported as 4 (4=no disease). For the same molecule, the “disease control grading, Pv (Plasmopara viticola)” value (shortened to “disease control grading, Pv”) [4, 11] was 4 (4=no disease), the “disease control grading, Pr (Puccinia recondita)” value (“disease control grading, Pr” for short) [5, 11] was 4 (4=no disease) and the “disease control grading, Egh (Erysiphe graminis hordei)” value (from here on “disease control grading, Egh”) [6, 12] was 4 (4=no disease).

For `COC=C(C(=O)OC)c1ccccc1Oc1nccc(-c2ccccc2)n1` [180 of Table III], the “disease control grading, Ca” value ([1]; 10 ppm foliar application only) was 3^a (3=trace-5% of disease on untreated plants), the “disease control grading, Po” value ([2]; 10 ppm foliar application only) was 3^a (3=trace-5% of disease on untreated plants) and the “disease control grading, Vi” value ([3]; 10 ppm foliar application only) was 4^a (4=no disease). For the same molecule, the “disease control grading, Pil (Phytophthora infestans lycopersici)” value (shortened to “disease control grading, Pil”) ([7]; 10 ppm foliar application only) was 4^a (4=no disease), the “disease control grading, Pv” value ([4]; 10 ppm foliar application only) was 4^a (4=no disease) and the “disease control grading, Pr” value ([5]; 10 ppm foliar application only) was 4^a (4=no disease). For the same molecule, the “disease control grading, Egh” value ([6]; 10 ppm foliar application only) was 4^a (4=no disease).

For `CO/C=C(/C(=O)OC)c1ccccc1Oc1cc(Nc2ccccc2)ncn1` [4 of Table I], the “disease control grading, Ca” value [1, 11] was 4 (4=no disease), the “disease control grading, Po” value [2, 11] was 3 (3=trace-5% of disease on untreated plants) and the “disease control grading, Vi” value [3, 11] was 4 (4=no disease). The “disease control grading, Pil” value [7, 11] was 3 (3=trace-5% of disease on untreated plants), the “disease control grading, Pv” value [4, 11] was 4 (4=no disease) and the “disease control grading, Pr” value [5, 11] was 4 (4=no disease). The “disease control grading, Egh” value [6, 12] was 4 (4=no disease).

With `CO/C=C(/C(=O)OC)c1ccccc1Oc1cc(S(=O)(=O)c2ccccn2)ncn1` [356 of Table I] the “disease control grading, Ca” value [1, 11] was 3 (3=trace-5% of disease on untreated plants), the “disease control grading, Vi” value [3, 11] was 4 (4=no disease) and the “disease control grading, Pil” value [7, 11] was 0 (0=60-100% of disease on untreated plants). For the same molecule, the “disease control grading, Pv” value [4, 11] was 4 (4=no disease), the “disease control grading, Pr” value [5, 11] was 1 (1=26-59% of disease on untreated plants) and the “disease control grading, Egh” value [6, 12] was 0 (0=60-100% of disease on untreated plants).

In the case of `CO/C=C(/C(=O)OC)c1ccccc1Oc1cc(OCCc2ccc(C#N)cc2)ncn1` [359 of Table I], the “disease control grading, Ca” value [1, 11] is reported as 4 (4=no disease), the “disease control grading, Pil” value [7, 11] is reported as 4 (4=no disease) and the “disease control grading, Pv” value [4, 11] is reported as 4 (4=no disease). The “disease control grading, Pr” value [5, 11] was 4 (4=no disease) and the “disease control grading, Egh” value [6, 12] was 4 (4=no disease).

For `CO/C=C(/C(=O)OC)c1ccccc1Oc1cc(O/N=C(\C)c2ccc[nH]2)ncn1` [407 of Table I], the “disease control grading, Po” value ([2]; 10 ppm foliar application only) was 1^a (1=26-59% of disease on untreated plants), the “disease control grading, Vi” value ([3]; 10 ppm foliar application only) was 3^a (3=trace-5% of disease on untreated plants) and the “disease control grading, Pil” value ([7]; 10 ppm foliar application only) was 0^a (0=60-100% of disease on untreated plants). For the same molecule, the “disease control grading, Pv” value ([4]; 10 ppm foliar application only) was 4^a (4=no disease), the “disease control grading, Egt (Erysiphe graminis tritici)” value [8] was 1^a (1=26-59% of disease on untreated plants) and the “disease control grading, Pr” value ([5]; 10 ppm foliar application only) was 0^a (0=60-100% of disease on untreated plants). For the same molecule, the “disease control grading, Sn (Septoria nodorum)” value [9] was 0^a (0=60-100% of disease on untreated plants) and the “disease control grading, Tc (Thanatephorus cucumeris)” value [10] was 0^a (0=60-100% of disease on untreated plants).

In the case of `CO/C=C(/C(=O)OC)c1ccccc1Oc1cc(-c2ccccc2)ncn1` [180 of Table I], the “disease control grading, Ca” value [1, 11] is reported as 4 (4=no disease), the “disease control grading, Vi” value [3, 11] is reported as 4 (4=no disease) and the “disease control grading, Pv” value [4, 11] is reported as 4 (4=no disease). For the same molecule, the “disease control grading, Pr” value [5, 11] was 4 (4=no disease) and the “disease control grading, Egh” value [6, 12] was 4 (4=no disease).
